Counter-ions that a name gives are not always drawn. Like-named read-outs stand apart in the source and are kept apart here.
What was measured:
canine prostate = assay: In vivo dog prostate model: inhibition of phenylephrine-induced increase in urethral pressure in anesthetized dogs; conditions: In Vivo Dog Prostate Model; phenylephrine-induced contraction, urethral pressure
Description: Protocol for In Vivo Evaluation of Compounds in Canine Prostate
Adult male mongrel dogs more than one year of age were chosen for the model. After induction of general anesthesia using sodium pentobarbital (25 mg/Kg i.v.), the animals were intubated and allowed to breathe spontaneously. An arterial catheter was inserted via the femoral artery to monitor blood pressure and i.v. line was inserted into the leg for fluid and drug administration. A constant saline infusion was maintained at 40 to 50 mL/h. Next, a seven cm lower abdominal incision was made one cm lateral to the penis.
The bladder, prostate and a short segment of urethra were identified and isolated, without damage to the nerves or blood vessels. A cystotomy incision was made through which the pressure catheter was inserted and positioned in the prostatic urethra. The cystotomy was not closed, but the wound edges were sutured to stop bleeding. The tip of the catheter was positioned just distal to the prostate and secured in place with an O-silk tie around the urethra. A second holding suture at the bladder neck secured the catheter in place.
Fluid, either water or saline, was pumped by a Harvard infusion pump at 0.1 mL/min through a Gould pressure transducer into the catheter. The fluid exists at a port in the catheter which is in the prostatic urethra. Occlusion of the port, by contraction of the prostate, blocks the flow and a pressure wave is created. This pressure is transmitted back through the catheter to the transducer which is attached to a Gould recorder. Squeezing the prostate gland caused an increase in urethral pressure which verified the correct position in the urethra.
The compounds were tested as follows: A dose response curve was first generated for phenylephrine alone, in doses ranging from one μg/Kg to 50 μg/Kg. The absolute rise in urethral pressure was recorded for each dose and the next dose given when the urethral pressure returned to baseline. Phenylephrine dose response curves were generated in all animals tested. Increasing doses of compounds were then given, and the phenylephrine dose response curve repeated in the prepense of each dose of the compound. No animal received more than one compound; four animals were used to test each compound. To test for tachyphylaxis, four separate dogs were challenged with repeated phenylephrine doses for six hrs, the usual length of each experiment. From the dose-effect data, the inhibition constant (Ki) and the median-effect dose (ED50) were calculated. Both the Ki and ED50 values given are calculated by using microcomputer software and an IBM-PC.

human prostatic tissue = assay: In vitro human prostate model: block of phenylephrine-induced contraction of human prostatic tissue; assay type: cell-based; conditions: In Vitro Human Prostate Model; phenylephrine-induced contraction
Excerpt: The protocol for these experiments is given below.
Functional Properties of α1 Antagonists in the Human Prostate
The efficacy of α1 adrenergic antagonists for the treatment of benign prostatic hyperplasia (BPH) is related to their ability to elicit relaxation of prostate smooth muscle. An index of this efficacy can be obtained by determining the potency of al antagonists to antagonize the contraction of human prostatic tissue induced by an α1 agonist “in vitro”. Furthermore, by comparing the potency of subtype selective α1 antagonists in binding assays using human α1 receptors with their potency to inhibit agonist-induced smooth muscle contraction, it is possible to determine which of the α1 adrenergic receptor subtypes is involved in the contraction of prostate smooth muscle.
Prostatic adenomas were obtained at the time of surgery from patients with symptomatic BPH. […] The baths were maintained at 37° C. and continuously oxygenated with 5% CO2 and 95% O2. Isometric tension was measured with a Grass Instrument FT03 force transducer interfaced with a computer. Tissue strips were contracted with varying concentrations of phenylephrine after incubating for 20 minutes in the absence and presence of at least three different concentrations of antagonist. Dose-response curves for phenylephrine were constructed, and the antagonist potency (pA2) was estimated by the dose-ratio method. The concentration of some antagonists in the tissue bath was assessed by measuring the displacement of [3H]prazosin by aliquots of the bath medium, using membrane preparations of the cloned human α1C receptor. This control was necessary to account for losses of antagonist due to adsorption to the tissue bath and/or metabolism during the time the antagonists were equilibrated with the prostate tissue.

α2B receptor = target: T1, α2B receptor (Homo sapiens, UniProt P18089); assay: Competition binding, [3H]rauwolscine, human α2B receptor; conditions: [3H]rauwolscine
T1 construct: host or cells: LM(tk-) cells, line L-NGC-α2B
T1 sequence (P18089 1-450): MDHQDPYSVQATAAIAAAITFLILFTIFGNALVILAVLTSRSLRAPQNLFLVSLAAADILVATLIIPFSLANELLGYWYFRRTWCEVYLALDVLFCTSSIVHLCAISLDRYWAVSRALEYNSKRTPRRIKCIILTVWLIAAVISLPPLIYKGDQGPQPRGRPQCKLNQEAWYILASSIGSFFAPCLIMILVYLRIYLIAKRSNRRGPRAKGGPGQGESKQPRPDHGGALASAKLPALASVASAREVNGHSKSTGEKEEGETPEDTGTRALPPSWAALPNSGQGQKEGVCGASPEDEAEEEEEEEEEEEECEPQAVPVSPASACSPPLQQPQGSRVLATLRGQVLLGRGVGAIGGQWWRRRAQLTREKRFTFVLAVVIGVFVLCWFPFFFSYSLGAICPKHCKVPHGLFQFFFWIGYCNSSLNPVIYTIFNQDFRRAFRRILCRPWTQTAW
Excerpt: (§1) The protocols for these experiments are given below.
(§2) α2 Human Adrenergic Receptors:
(§3) To determine the potency of […], antagonists at the α2 receptors, LM(tk−) cell lines stably transfected with the genes encoding the α2A, α2B, and α2C receptors were used. The cell line expressing the α2A receptor is designated L-α2A, and was deposited on Nov. […] The cell line expressing the α2B receptor is designated L-NGC-α2B, and was deposited on Oct. […] The cell line expressing the α2C receptor is designated L-α2C, and was deposited on Nov. […] Cell lysates were prepared as described above (see Radioligand Binding Assays), and suspended in 25 mM glycylglycine buffer (pH 7.6 at room temperature). Equilibrium competition binding assay were performed using [3H]rauwolscine (0.5 nM), and nonspecific binding was determined by incubation with 10 μM phentolamine. The bound radioligand was separated by filtration through GF/B filters using a cell harvester.

α2A receptor = target: T2, α2A receptor (Homo sapiens, UniProt P08913); assay: Competition binding, [3H]rauwolscine, human α2A receptor; conditions: [3H]rauwolscine
T2 construct: host or cells: LM(tk-) cells, line L-α2A
T2 sequence (P08913 1-465): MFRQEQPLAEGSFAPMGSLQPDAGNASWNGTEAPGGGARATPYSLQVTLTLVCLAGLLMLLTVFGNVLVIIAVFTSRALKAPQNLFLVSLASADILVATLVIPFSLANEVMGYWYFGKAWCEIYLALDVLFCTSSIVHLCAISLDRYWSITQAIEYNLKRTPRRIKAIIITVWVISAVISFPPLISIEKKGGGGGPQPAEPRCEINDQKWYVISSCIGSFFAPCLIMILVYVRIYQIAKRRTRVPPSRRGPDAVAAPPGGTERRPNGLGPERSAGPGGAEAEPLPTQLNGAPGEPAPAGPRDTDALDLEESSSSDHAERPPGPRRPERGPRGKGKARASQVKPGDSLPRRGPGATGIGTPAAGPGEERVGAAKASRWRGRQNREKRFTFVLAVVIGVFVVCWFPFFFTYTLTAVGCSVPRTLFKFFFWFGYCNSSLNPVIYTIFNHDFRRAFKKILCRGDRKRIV
Excerpt: as §1, §2, §3

α2C receptor = target: T3, α2C receptor (Homo sapiens, UniProt P18825); assay: Competition binding, [3H]rauwolscine, human α2C receptor; conditions: [3H]rauwolscine
T3 construct: host or cells: LM(tk-) cells, line L-α2C
T3 sequence (P18825 1-462): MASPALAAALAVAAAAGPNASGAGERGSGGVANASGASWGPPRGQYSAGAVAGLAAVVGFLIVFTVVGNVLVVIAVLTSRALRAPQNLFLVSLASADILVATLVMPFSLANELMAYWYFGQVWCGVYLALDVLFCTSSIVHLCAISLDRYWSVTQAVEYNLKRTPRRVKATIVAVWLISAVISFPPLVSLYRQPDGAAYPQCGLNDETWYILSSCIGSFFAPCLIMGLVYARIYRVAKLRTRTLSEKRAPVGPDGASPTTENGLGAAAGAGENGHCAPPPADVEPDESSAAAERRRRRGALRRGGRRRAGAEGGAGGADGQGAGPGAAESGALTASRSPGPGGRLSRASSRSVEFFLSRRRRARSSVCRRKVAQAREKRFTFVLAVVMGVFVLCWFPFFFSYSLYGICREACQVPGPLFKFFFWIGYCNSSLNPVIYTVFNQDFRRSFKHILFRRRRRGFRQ
Excerpt: as §1, §2, §3

L-type calcium channel = target: T4, L-type calcium channel (Rattus norvegicus, UniProt P22002); assay: Competition binding of [3H]nitrendipine to membrane fragments of rat cardiac muscle; conditions: [3H]nitrendipine, rat cardiac muscle membranes
T4 construct: membrane fragments of rat cardiac muscle; from tissue; host or cells: rat cardiac muscle membranes
T4 sequence (P22002 whole entry, other chains not shown, the tested form may be a part): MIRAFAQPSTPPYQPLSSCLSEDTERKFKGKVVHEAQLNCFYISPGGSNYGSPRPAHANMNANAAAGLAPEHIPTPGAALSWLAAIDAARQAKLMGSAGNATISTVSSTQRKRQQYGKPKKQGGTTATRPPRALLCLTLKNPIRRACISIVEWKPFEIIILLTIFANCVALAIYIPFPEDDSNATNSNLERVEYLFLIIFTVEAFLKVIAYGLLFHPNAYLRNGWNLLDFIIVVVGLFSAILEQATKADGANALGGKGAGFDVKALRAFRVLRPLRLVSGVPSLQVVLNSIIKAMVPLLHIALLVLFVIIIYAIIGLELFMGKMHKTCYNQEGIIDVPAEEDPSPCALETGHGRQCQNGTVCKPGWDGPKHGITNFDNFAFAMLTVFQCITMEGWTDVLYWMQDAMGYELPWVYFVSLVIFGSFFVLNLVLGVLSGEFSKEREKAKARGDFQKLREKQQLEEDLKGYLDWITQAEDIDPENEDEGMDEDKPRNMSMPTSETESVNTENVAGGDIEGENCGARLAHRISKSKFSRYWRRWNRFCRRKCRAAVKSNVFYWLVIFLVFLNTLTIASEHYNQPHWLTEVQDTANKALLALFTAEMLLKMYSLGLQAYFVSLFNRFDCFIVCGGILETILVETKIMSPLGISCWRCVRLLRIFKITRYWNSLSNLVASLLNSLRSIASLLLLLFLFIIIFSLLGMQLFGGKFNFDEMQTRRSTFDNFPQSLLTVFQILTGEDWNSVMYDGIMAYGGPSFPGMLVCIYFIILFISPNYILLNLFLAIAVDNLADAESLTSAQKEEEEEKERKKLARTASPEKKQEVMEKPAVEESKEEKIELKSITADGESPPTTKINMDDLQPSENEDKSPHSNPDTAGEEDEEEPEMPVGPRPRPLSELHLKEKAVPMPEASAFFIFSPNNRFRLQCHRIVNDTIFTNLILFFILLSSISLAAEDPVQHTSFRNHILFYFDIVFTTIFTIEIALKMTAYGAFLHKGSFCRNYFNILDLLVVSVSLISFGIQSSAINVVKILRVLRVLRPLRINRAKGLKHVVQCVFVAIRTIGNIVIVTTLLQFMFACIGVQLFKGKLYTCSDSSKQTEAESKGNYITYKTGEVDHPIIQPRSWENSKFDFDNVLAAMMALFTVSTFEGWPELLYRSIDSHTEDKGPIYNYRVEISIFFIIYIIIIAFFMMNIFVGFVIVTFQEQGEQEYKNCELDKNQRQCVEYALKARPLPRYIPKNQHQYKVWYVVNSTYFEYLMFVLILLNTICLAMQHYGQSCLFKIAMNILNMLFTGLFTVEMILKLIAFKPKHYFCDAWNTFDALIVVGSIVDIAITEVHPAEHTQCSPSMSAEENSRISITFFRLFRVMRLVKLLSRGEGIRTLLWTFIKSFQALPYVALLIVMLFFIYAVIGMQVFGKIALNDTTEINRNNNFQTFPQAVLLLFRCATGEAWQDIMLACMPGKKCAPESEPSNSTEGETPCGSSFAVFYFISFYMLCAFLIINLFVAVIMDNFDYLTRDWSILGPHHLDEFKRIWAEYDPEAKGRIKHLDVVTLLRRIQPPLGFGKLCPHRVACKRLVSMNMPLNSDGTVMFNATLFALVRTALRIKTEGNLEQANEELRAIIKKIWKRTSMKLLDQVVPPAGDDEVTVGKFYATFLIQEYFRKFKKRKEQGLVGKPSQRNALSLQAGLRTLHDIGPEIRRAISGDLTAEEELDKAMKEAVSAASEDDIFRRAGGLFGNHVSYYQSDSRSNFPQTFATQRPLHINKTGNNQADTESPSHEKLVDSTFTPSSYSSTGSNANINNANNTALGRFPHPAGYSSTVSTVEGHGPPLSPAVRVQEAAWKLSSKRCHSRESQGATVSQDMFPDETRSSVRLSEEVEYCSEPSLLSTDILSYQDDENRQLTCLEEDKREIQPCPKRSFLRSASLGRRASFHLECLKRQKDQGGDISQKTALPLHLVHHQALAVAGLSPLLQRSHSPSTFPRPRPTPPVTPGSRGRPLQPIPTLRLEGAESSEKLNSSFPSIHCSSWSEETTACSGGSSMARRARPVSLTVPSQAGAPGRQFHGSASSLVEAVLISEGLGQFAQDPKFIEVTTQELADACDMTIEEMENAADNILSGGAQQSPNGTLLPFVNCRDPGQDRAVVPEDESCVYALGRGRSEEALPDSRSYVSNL
T4 sequence (P54290 25-944 partner limits assumed, other chains not shown): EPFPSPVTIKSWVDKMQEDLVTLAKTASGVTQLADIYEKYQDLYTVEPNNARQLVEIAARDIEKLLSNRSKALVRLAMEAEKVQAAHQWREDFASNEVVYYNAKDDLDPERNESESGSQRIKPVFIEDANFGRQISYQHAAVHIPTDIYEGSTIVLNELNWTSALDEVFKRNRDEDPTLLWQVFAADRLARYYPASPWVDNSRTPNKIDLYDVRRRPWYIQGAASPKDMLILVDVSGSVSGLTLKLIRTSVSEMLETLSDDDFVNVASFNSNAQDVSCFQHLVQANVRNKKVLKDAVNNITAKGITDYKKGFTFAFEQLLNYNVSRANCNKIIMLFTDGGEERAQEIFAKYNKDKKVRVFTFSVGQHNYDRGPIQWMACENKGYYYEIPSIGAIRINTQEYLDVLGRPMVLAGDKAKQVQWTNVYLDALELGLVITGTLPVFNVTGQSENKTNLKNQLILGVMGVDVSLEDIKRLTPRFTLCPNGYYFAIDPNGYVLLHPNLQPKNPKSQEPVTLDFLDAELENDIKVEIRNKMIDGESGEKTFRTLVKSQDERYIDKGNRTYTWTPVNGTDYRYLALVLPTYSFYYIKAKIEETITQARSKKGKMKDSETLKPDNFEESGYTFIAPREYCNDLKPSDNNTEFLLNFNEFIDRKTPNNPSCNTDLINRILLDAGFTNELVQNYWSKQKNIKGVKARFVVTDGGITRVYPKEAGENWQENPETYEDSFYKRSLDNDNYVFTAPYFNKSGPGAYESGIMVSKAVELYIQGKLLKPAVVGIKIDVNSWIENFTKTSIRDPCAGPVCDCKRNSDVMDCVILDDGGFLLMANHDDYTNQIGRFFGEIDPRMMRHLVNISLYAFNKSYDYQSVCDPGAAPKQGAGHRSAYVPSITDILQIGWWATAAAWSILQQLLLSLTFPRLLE
T4 sequence (P54290 945-1091 partner limits assumed, other chains not shown): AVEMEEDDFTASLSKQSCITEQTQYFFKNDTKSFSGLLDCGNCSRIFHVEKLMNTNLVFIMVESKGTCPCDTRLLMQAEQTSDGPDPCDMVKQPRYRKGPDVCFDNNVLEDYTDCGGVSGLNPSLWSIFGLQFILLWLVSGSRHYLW

[1] = human receptor, LM(tk-) cell lysates, mean, read-out: PKi alpha-2 2b (converted)
[2] = human receptor, LM(tk-) cell lysates, mean, read-out: PKi alpha-2 2a (converted)
[3] = human receptor, LM(tk-) cell lysates, mean, read-out: PKi alpha-2 2c (converted)
[4] = mean, read-out: PKi Ca (converted)

Ki (α2B receptor; LM(tk-) cell line L-NGC-α2B, SEM and n in lines below, read-out: pKi alpha-2 2b (converted)) [nM]	Ki (α2A receptor; LM(tk-) cell line L-α2A, SEM and n in lines below, read-out: pKi alpha-2 2a (converted)) [nM]	Ki (α2C receptor; LM(tk-) cell line L-α2C, SEM and n in lines below, read-out: pKi alpha-2 2c (converted)) [nM]	Ki (L-type calcium channel; SEM and n in lines below, read-out: pKi Ca (converted)) [µM]	Structure (SMILES)	Ki (canine prostate) [nmol/kg]	pKi (human prostatic tissue)	Ki (α2B receptor; [1]) [nM]	Ki (α2A receptor; [2]) [nM]	melting point [°C]	Ki (α2C receptor; [3]) [nM]	Ki (L-type calcium channel; [4]) [µM]
–	–	–	–	COC(=O)C1=C(C)NC(C)=C(C(=O)NCCCN2CCC(c3ccccc3)(c3ccccc3)CC2)C1c1ccc([N+](=O)[O-])cc1 (racemic) [(±)-93, hydrochloride hydrate]	7.6	7.28 ± 0.4	–	–	–	–	–
–	–	–	–	CCOC(=O)C1(c2ccccc2)CCN(CCCNC(=O)C2=C(C)NC(C)=C(C(C)=O)C2c2ccc([N+](=O)[O-])cc2)CC1 (racemic) [Example 202, 5-Acetyl-1,4-dihydro-2,6-dimethyl-3-{N-[3-(4-ethoxycarbonyl-4-phenylpiperidin-1-yl)propyl]}carboxamido-4-(4-nitrophenyl)pyridine]	–	–	912	4470	89 to 90	2140	263
129	269	186	6.46	CNC(=O)C1=C(C)NC(C)=C(C(=O)NCCCN2CCC(c3ccccc3)CC2)C1c1ccc([N+](=O)[O-])cc1 (stereo not shown) [Example 56, 1,4-Dihydro-2,6-dimethyl-5-(N-methyl) carboxamido-4-(4-nitrophenyl)-3-{N-[3-(4-phenylpiperidin-1-yl)propyl]}carboxamidopyridine hydrochloride hemihydrate]	–	–	–	–	–	–	–
–	–	–	–	COC(=O)C1(c2ccccc2)CCN(CCCNC(=O)C2=C(C)NC(C)=C(C(N)=O)C2c2ccc([N+](=O)[O-])cc2)CC1 (stereo not shown) [Example 198, 5-Carboxamido-1,4-dihydro-2,6-dimethyl-3-{N-[3-(4-methoxycarbonyl-4-phenylpiperidin-1-yl)propyl]}carboxamido-4-(4-nitrophenyl)pyridine]	–	–	1070	1120	120 to 121	2450	178

Reference: US6608086B2, “Dihydropyridines and new uses thereof” (Synaptic Pharmaceutical Corporation, priority 1993, dated 2003)
